Laboratory results taken from ChEMBL document CHEMBL4052645, “Discovery of potent and efficacious pyrrolopyridazines as dual JAK1/3 inhibitors” (Bioorg Med Chem Lett, 2017).

Key:
Mus musculus = experiment: In vivo inhibition of JAK1/JAK3 in Balb/c mouse assessed as reduction in IL15-induced STAT5 phosphorylation at […], po after 4 hrs; format: functional, organism-based
[1] = target: NUAK family SNF1-like kinase 2 (Homo sapiens) (UniProt Q9H093); experiment: Inhibition of human NUAK2 (P22 to A333 residues) expressed in mammalian expression system assessed as residual activity at 50 nM by KINOMEscan assay relative to control
[2] = target: Serine/threonine-protein kinase RIO3 (Homo sapiens) (UniProt O14730); experiment: Inhibition of full length human RIOK3 (M1 to E519 residues) expressed in bacterial expression system assessed as residual activity at 50 nM by KINOMEscan assay relative to control
[3] = target: Serine/threonine-protein kinase PknB (Mycobacterium tuberculosis) (UniProt P9WI81); experiment: Inhibition of wild-type Mycobacterium tuberculosis partial length PKNB (M1 to G279 residues) expressed in mammalian expression system assessed as residual activity at 50 nM by Kinomescan method relative to control
Sequence of Serine/threonine-protein kinase PknB (Mycobacterium tuberculosis) (P9WI81 whole entry, the tested form may be a part): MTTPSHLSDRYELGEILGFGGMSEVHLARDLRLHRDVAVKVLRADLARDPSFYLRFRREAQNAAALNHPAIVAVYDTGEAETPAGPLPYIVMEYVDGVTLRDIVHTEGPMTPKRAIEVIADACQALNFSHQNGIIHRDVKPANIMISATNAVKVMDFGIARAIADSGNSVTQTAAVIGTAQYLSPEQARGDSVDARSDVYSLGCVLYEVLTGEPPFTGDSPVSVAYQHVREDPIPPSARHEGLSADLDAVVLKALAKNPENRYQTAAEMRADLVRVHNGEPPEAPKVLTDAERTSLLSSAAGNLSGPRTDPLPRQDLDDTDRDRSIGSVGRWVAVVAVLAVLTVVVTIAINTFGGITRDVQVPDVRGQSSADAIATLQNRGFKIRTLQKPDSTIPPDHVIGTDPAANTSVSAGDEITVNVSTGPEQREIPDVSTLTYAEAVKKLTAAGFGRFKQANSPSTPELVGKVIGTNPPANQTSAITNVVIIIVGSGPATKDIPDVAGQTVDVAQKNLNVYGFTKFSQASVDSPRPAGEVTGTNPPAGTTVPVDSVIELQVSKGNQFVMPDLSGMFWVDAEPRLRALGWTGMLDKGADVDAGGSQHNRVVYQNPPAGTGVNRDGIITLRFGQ

[4] = target: Ribosomal protein S6 kinase alpha-3 (Homo sapiens) (UniProt P51812); experiment: Inhibition of wild-type human partial length N-terminal RSK2 kinase domain 1 (M1 to D394 residues) expressed in mammalian expression system assessed as residual activity at 50 nM by Kinomescan method relative to control
Sequence of Ribosomal protein S6 kinase alpha-3 (Homo sapiens) (P51812 whole entry, the tested form may be a part): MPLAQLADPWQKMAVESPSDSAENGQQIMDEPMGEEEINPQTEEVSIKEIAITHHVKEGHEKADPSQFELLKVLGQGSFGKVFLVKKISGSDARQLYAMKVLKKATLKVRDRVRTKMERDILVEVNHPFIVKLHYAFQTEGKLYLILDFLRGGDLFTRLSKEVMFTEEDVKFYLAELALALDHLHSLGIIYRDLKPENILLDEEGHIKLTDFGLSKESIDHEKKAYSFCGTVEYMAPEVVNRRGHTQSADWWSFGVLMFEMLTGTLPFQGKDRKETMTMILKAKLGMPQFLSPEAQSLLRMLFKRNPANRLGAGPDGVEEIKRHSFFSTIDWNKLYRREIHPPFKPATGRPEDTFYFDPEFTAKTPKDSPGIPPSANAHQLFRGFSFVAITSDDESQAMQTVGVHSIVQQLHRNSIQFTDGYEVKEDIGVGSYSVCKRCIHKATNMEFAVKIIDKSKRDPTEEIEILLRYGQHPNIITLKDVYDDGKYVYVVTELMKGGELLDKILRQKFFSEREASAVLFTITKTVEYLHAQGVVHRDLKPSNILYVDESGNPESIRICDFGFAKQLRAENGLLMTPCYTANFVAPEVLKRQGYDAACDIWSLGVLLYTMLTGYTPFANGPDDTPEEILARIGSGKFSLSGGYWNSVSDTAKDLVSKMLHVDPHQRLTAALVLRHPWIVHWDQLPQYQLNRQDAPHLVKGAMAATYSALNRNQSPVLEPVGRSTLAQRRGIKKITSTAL

[5] = target: Serine/threonine-protein kinase 25 (Homo sapiens) (UniProt O00506); experiment: Inhibition of wild-type human partial length YSK1 (V14 to H295 residues) expressed in bacterial expression system assessed as residual activity at 50 nM by Kinomescan method relative to control
[6] = target: Activin receptor type-2B (Homo sapiens) (UniProt Q13705); experiment: Inhibition of wild-type human ACTR2B (H169 to D504 residues) expressed in bacterial expression system assessed as residual activity at 50 nM by Kinomescan method relative to control
Sequence of Activin receptor type-2B (Homo sapiens) (Q13705 whole entry, the tested form may be a part): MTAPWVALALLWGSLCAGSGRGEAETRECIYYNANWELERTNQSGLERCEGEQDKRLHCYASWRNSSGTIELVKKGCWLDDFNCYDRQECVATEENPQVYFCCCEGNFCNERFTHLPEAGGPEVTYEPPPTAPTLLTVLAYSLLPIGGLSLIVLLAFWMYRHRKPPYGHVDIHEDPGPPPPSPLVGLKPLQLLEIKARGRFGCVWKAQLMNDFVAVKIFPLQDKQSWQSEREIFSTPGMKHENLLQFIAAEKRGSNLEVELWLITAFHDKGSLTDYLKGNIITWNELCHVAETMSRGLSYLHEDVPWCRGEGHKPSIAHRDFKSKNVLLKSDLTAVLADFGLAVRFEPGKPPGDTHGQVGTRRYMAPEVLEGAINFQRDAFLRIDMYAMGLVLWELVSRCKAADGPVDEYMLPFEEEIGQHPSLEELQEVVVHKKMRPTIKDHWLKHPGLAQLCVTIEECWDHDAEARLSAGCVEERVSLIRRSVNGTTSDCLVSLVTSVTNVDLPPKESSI

[7] = target: LIM domain kinase 1 (Homo sapiens) (UniProt P53667); experiment: Inhibition of wild-type human full length LIMK1 (M1 to D647 residues) expressed in bacterial expression system assessed as residual activity at 50 nM by Kinomescan method relative to control
Sequence of LIM domain kinase 1 (Homo sapiens) (P53667 whole entry, looked up, the tested form may be a part): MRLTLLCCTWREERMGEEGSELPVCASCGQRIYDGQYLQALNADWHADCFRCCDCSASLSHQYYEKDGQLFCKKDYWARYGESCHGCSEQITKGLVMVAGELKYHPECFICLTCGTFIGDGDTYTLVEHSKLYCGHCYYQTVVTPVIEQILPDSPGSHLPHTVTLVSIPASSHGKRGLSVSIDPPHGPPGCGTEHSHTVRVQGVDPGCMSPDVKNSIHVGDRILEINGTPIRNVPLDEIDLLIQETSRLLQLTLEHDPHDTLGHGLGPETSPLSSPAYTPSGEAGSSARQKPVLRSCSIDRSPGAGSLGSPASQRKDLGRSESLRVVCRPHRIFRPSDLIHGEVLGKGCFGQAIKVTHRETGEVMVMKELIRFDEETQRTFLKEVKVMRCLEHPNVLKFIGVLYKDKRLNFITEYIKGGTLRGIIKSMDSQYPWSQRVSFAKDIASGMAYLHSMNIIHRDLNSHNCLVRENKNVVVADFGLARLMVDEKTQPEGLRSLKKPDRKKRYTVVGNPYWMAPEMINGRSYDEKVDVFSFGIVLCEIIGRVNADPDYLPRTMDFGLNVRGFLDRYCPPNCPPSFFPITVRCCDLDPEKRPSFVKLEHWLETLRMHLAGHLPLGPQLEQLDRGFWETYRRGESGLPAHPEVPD

[8] = target: Cyclin-dependent kinase 13 (Homo sapiens) (UniProt Q14004); experiment: Inhibition of wild-type human partial length CDC2L5 (H675 to S1054 residues) expressed in mammalian expression system assessed as residual activity at 50 nM by Kinomescan method relative to control
Sequence of Cyclin-dependent kinase 13 (Homo sapiens) (Q14004 whole entry, looked up, the tested form may be a part): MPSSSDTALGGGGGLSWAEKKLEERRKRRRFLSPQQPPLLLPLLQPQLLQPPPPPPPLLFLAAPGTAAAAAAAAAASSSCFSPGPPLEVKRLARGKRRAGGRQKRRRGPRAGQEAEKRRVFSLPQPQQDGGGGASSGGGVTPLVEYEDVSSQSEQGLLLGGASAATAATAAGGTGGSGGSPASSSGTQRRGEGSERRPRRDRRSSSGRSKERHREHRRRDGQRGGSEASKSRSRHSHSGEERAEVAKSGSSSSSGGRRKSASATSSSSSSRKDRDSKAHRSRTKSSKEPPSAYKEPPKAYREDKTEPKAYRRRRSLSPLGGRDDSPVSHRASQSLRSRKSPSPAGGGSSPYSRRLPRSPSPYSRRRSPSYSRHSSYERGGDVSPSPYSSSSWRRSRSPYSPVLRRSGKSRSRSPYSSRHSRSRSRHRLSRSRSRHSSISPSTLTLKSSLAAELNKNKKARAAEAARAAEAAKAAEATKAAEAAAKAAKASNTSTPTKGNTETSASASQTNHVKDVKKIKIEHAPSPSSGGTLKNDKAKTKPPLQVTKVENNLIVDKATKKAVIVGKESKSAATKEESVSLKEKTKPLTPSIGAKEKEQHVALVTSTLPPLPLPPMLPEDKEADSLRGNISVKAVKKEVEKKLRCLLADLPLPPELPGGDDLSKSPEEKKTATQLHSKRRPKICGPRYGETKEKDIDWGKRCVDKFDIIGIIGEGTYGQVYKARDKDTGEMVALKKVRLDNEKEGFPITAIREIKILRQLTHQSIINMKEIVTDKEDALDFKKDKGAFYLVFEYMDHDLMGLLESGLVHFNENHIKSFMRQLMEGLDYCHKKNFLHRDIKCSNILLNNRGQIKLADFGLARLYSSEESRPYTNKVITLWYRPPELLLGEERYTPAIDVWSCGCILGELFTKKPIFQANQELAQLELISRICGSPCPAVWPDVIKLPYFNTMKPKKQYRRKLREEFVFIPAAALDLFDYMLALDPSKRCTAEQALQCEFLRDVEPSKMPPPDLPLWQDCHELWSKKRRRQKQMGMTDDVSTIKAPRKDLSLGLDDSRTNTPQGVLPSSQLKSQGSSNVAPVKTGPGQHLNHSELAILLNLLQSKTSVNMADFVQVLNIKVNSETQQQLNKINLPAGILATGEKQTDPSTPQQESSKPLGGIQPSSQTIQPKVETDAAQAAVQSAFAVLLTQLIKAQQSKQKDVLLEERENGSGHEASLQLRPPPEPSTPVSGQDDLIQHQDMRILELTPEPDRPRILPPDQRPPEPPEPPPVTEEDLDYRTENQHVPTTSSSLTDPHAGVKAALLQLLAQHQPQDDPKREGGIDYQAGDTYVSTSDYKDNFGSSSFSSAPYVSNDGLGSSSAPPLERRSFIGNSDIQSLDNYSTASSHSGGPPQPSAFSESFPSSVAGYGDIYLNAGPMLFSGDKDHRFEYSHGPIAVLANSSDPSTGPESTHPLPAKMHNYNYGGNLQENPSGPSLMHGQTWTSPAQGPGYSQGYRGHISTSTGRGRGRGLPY

[9] = target: Dual specificity mitogen-activated protein kinase kinase 1 (Homo sapiens) (UniProt Q02750); experiment: Inhibition of wild-type human full length MAP2K1 (M1 to V393 residues) expressed in mammalian expression system assessed as residual activity at 50 nM by Kinomescan method relative to control
Sequence of Dual specificity mitogen-activated protein kinase kinase 1 (Homo sapiens) (Q02750 whole entry, the tested form may be a part): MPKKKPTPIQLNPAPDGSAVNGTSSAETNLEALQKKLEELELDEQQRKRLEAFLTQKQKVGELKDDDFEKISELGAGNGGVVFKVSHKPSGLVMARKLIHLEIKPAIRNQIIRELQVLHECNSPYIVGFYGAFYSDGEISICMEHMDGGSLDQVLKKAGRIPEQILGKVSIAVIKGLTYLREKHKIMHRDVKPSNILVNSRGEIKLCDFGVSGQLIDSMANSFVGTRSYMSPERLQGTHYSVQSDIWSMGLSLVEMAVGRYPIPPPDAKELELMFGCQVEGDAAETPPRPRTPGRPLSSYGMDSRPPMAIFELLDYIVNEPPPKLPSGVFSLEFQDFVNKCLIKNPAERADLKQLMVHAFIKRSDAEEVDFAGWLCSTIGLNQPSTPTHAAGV

[10] = target: Serine/threonine-protein kinase SIK1 (Homo sapiens) (UniProt P57059); experiment: Inhibition of wild-type human partial length SIK (M1 to Y304 residues) expressed in bacterial expression system assessed as residual activity at 50 nM by Kinomescan method relative to control
[11] = target: Phosphorylase b kinase gamma catalytic chain, skeletal muscle/heart isoform (Homo sapiens) (UniProt Q16816); experiment: Inhibition of wild-type human full length PHKG1 (M1 to Y387 residues) expressed in bacterial expression system assessed as residual activity at 50 nM by Kinomescan method relative to control
[12] = target: High affinity nerve growth factor receptor (Homo sapiens) (UniProt P04629); experiment: Inhibition of wild-type human partial length TRKA (G475 to G790 residues) expressed in mammalian expression system assessed as residual activity at 50 nM by Kinomescan method relative to control
[13] = target: cGMP-dependent protein kinase 2 (Homo sapiens) (UniProt Q13237); experiment: Inhibition of wild-type human partial length PKG2 (S422 to F762 residues) expressed in mammalian expression system assessed as residual activity at 50 nM by Kinomescan method relative to control
[14] = target: Phosphatidylinositol 4-kinase beta (Homo sapiens) (UniProt Q9UBF8); experiment: Inhibition of wild-type human full length PIK4CB (M1 to M828 residues) expressed in mammalian expression system assessed as residual activity at 50 nM by Kinomescan method relative to control
[15] = target: Calcium/calmodulin-dependent protein kinase kinase 1 (Homo sapiens) (UniProt Q8N5S9); experiment: Inhibition of wild-type human partial length CAMKK1 (R65 to E414 residues) expressed in bacterial expression system assessed as residual activity at 50 nM by Kinomescan method relative to control
[16] = target: Cyclin-dependent kinase 7 (Homo sapiens) (UniProt P50613); experiment: Inhibition of wild-type human full length CDK7 (M1 to L344 residues) expressed in mammalian expression system assessed as residual activity at 50 nM by Kinomescan method relative to control
[17] = target: SRSF protein kinase 2 (Homo sapiens) (UniProt P78362); experiment: Inhibition of wild-type human full length SRPK2 (M1 to S686 residues) expressed in bacterial expression system assessed as residual activity at 50 nM by Kinomescan method relative to control
[18] = target: Serine/threonine-protein kinase tousled-like 2 (Homo sapiens) (UniProt Q86UE8); experiment: Inhibition of wild-type human partial length TLK2 (E424 to N749 residues) expressed in bacterial expression system assessed as residual activity at 50 nM by Kinomescan method relative to control
[19] = target: Tyrosine-protein kinase BTK (Homo sapiens) (UniProt Q06187); experiment: Inhibition of wild-type human full length BTK (M1 to S659 residues) expressed in mammalian expression system assessed as residual activity at 50 nM by Kinomescan method relative to control
[20] = target: Bone morphogenetic protein receptor type-1A (Homo sapiens) (UniProt P36894); experiment: Inhibition of wild-type human partial length BMPR1A (Q214 to I532 residues) expressed in bacterial expression system assessed as residual activity at 50 nM by Kinomescan method relative to control
[21] = target: Tyrosine-protein kinase Fer (Homo sapiens) (UniProt P16591); experiment: Inhibition of wild-type human partial length FER (S542 to T822 residues) expressed in bacterial expression system assessed as residual activity at 50 nM by Kinomescan method relative to control
[22] = target: MAP kinase-activated protein kinase 2 (Homo sapiens) (UniProt P49137); experiment: Inhibition of wild-type human partial length MAPKAPK2 (V48 to D345 residues) expressed in bacterial expression system assessed as residual activity at 50 nM by Kinomescan method relative to control
[23] = target: MAP kinase-activated protein kinase 5 (Homo sapiens) (UniProt Q8IW41); experiment: Inhibition of wild-type human partial length MAPKAPK5 (M1 to D322 residues) expressed in mammalian expression system assessed as residual activity at 50 nM by Kinomescan method relative to control
Sequence of MAP kinase-activated protein kinase 5 (Homo sapiens) (Q8IW41 whole entry, the tested form may be a part): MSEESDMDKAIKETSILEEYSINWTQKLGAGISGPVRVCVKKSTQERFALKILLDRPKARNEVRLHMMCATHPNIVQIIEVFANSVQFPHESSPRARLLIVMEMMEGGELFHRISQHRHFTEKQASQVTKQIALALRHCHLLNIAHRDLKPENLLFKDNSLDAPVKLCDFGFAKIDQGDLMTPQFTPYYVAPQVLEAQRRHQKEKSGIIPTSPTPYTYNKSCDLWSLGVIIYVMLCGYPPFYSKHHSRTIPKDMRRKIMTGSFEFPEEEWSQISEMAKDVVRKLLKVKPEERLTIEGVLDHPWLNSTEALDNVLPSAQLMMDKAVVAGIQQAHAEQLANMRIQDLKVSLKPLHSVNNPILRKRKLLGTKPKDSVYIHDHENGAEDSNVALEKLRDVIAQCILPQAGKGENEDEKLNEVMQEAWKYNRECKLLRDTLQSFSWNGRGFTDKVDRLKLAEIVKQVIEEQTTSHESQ

[24] = target: cAMP-dependent protein kinase catalytic subunit beta (Homo sapiens) (UniProt P22694); experiment: Inhibition of wild-type human full length PKACB (M1 to F351 residues) expressed in bacterial expression system assessed as residual activity at 50 nM by Kinomescan method relative to control

With `CC1(C)[C@H](Nc2c(C(N)=O)cnn3cc(-c4ccccc4)cc23)CC[C@]1(C)N` the EC50 (Mus musculus) was 125 nM, the Activity [1] was 2.7% and the Activity [2] was 3.7%. It also gave an Activity [3] of 17%, an Activity [4] of 47% and an Activity [5] of 58%. The Activity [6] was 67%, the Activity [7] was 67% and the Activity [8] was 72%. For the same molecule, the Activity [9] was 80%, the Activity [10] was 80% and the Activity [11] was 81%. It also gave an Activity [12] of 83%, an Activity [13] of 87% and an Activity [14] of 90%. For the same molecule, the Activity [15] was 92%, the Activity [16] was 93% and the Activity [17] was 95%. It also gave an Activity [18] of 96%, an Activity [19] of 99% and an Activity [20] of 100%. It also gave an Activity [21] of 100%, an Activity [22] of 100% and an Activity [23] of 100%. For the same molecule, the Activity [24] was 100%.
For `COc1ccc(-c2cc3c(N[C@@H]4CC[C@](C)(N)C4(C)C)c(C(N)=O)cnn3c2)cn1`, the EC50 (Mus musculus) was 67 nM, the Activity [1] was 7% and the Activity [2] was 66%. The Activity [3] was 24%, the Activity [4] was 74% and the Activity [5] was 74%. The Activity [6] was 100%, the Activity [7] was 100% and the Activity [8] was 100%. For the same molecule, the Activity [9] was 94%, the Activity [10] was 96% and the Activity [11] was 100%. The Activity [12] was 100%, the Activity [13] was 100% and the Activity [14] was 100%. The Activity [15] was 100%, the Activity [16] was 84% and the Activity [17] was 81%. For the same molecule, the Activity [18] was 98%, the Activity [19] was 100% and the Activity [20] was 100%. For the same molecule, the Activity [21] was 100%, the Activity [22] was 100% and the Activity [23] was 100%. For the same molecule, the Activity [24] was 100%.
